How the values were obtained:
SH-SY5Y cells = experiment: cAMP accumulation assay in morphine-treated SH-SY5Y cells; type: cell-based, human; details: for cAMP levels: 24 h, SH-SY5Y cells, control not treated with morphine = 100%
Protocol: Culture of SH-SY5Y Cells. SH-SY5Y cells, a well-established stable human neuroblastoma cell line, were purchased from American Type Culture Collection (ATCC, Manassas, Va.) and grown in Dulbecco's modified Eagle's medium (DMEM) with 10% fetal bovine serum, […] penicillin, and 100 μg/ml streptomycin at 37° C. in a 5% CO2 humidified incubator (Fisher). Before experiments, SH-SY5Y cells were treated with 10 μM retinoic acid (RA) for 6 days to induce neuronal differentiation. These differentiated SH-SY5Y cells were then treated with morphine (10 μM) for 24 h unless otherwise specified.
cAMP Accumulation Assay. Levels of cAMP, which is involved in a cellular mechanism of opioid tolerance development, were determined in morphine-treated SH-SY5Y cells. Thirty-six hours after co-culturing with hMSCs or HDFs, SH-SY5Y cells were harvested with a non-enzymatic cell dissociation solution and washed once with HBSS buffer. cAMP accumulation in SH-SY5Y cells was assayed using a LANCE™ cAMP kit (PerkinElmer, Waltham, Mass.) according to the manufacturer's protocol. SH-SY5Y cells were centrifuged at 1000 g for 2 min, resuspended at a concentration of 2×10^6 cells/ml in stimulation buffer (1×HBSS, 5 mM HEPES, 0.1% BSA, 0.5 mM IBMX, pH 7.4) and mixed with 50 μM forskolin. Alexa pluor® 647 labeled antibody was added to the cell suspension and the cells were incubated at 37° C. for additional 15 min, and detection mix was then added to the final cell suspension. The cell sample was further incubated for 1 h in the dark and read on a TECAN instrument (San Jose, Calif.) to measure the LANCE signal. The LANCE signal obtained at […] was directly used to analyze the cAMP levels. The signal at […] was used to identify dispensing or quenching problems. The cAMP standard curve was assayed according to the manufacturer's instructions. The cAMP formation was calculated as the percentage of forskolin-stimulated cAMP accumulation without morphine, which was defined as 100%. All data were expressed as mean±SD. Statistical comparisons were analyzed using Prism software. […]

Sprague-Dawley rats [1] = experiment: Withdrawal thresholds to mechanical stimulation (von Frey) in rats, MSC transplantation and daily morphine; type: in vivo, rat
Protocol: (§1) Animal care and use. The experimental protocols were approved by the Institutional Animal Care and Use Committee of Cleveland Clinic (IACUC #: 2010-0460). Experiments were performed on 24 male Sprague-Dawley rats (250-300 g), purchased from Harlan Laboratories (Indianapolis, Ind.). The animals were housed in group cages (2 per cage), allowed free access to food and water, and maintained on a 12/12 hour light/dark cycle.
(§2) Experimental design. Animals were habituated daily to the experimental environment for 1 week before testing. Pain sensitivity to mechanical or thermal stimuli applied to the hindpaws was determined by the thresholds of withdrawal of the hindlimbs from the stimuli. […] The effects of MSC transplantation or PBS injection on morphine-induced tolerance were evaluated every other day. […]
(§3) Stem cell transplantation. […] Immediately before transplantation, the cells were gently dissociated with 0.25% Trypsin, pelleted by centrifugation, counted by trypan blue exclusion, and suspended in 50 μl of PBS. […]
(§4) Behavioral tests. […] Withdrawal thresholds were quantified as the mechanical pressure in grams applied to the hindpaws through calibrated filaments (von Frey filaments) or the time interval in seconds between the activation of an infrared thermal stimulation and the withdrawal of the limb. […]

Sprague-Dawley rats [2] = experiment: Withdrawal thresholds to thermal stimulation (plantar test) in rats, MSC transplantation and daily morphine; type: in vivo, rat; details: control group, Day 17 and thereafter, daily morphine, p<0.05
Protocol: as §1, §2, §3, §4

Question: How did the cAMP levels (SH-SY5Y cells; 1 μM morphine) turn out when `CN1CC[C@]23c4c5ccc(O)c4O[C@H]2[C@@H](O)C=C[C@H]3[C@H]1C5` [morphine] was run?
Answer: 150.7±20.6 % of control

Question: And the cAMP levels (SH-SY5Y cells; 10 μM morphine)?
Answer: 241.6±19.6 % of control

Question: And the “cAMP levels over time” value (SH-SY5Y cells; 10 μM morphine, at 24 and 48 h vs 0 h, p<0.001 (FIG. 2))?
Answer: significant increase of cAMP

Question: What about the “withdrawal thresholds to mechanical stimulation (morphine tolerance)” value (Sprague-Dawley rats [1]; control (PBS) group, daily s.c. morphine 7.5 mg/kg, within five days) of the same molecule?
Answer: gradually and significantly reduced

Question: And the “mean mechanical withdrawal thresholds vs pre-morphine value at day 11” value (Sprague-Dawley rats [1]; control group, Day 15, 4 days after start of daily morphine injections, t=15.639, p<0.001)?
Answer: dramatically decreased

Question: And the “withdrawal thresholds to thermal stimulation vs pre-morphine values at day 11” value (Sprague-Dawley rats [2])?
Answer: significantly reduced

From patent US20150246074A1, “METHODS OF A[…] TOLERANCE” (The Board of Trustees of the University of Illinois, priority 2014, published 2015)
